Measurements as given in BindingDB's records for PubMed 20126400 (University of Oklahoma, 2010).

Assays:
Assay in all cases: Ray2010 Assay 74
[1] = biological target: 5-hydroxytryptamine receptor 6 (Homo sapiens, UniProt P50406)
Description: (§1) Table S2 shows raw Ki data for the current study combined with data collected from the literature for the ten additional compounds.

[2] = biological target: T1, D(4) dopamine receptor (Homo sapiens, UniProt P21917)
T1 sequence (P21917 whole entry): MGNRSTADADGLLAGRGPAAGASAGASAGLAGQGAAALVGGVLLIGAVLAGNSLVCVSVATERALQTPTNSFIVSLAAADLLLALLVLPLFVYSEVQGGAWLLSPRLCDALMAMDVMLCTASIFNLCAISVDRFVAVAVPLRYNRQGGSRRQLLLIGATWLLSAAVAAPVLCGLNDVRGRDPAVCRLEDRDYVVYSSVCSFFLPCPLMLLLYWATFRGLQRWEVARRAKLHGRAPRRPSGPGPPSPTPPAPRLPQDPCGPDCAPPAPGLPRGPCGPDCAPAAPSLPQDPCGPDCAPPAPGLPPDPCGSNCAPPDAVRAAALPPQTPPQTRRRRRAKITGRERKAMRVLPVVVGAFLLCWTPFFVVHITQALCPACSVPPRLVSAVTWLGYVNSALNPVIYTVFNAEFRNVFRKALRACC
Description: as §1

[3] = biological target: 5-hydroxytryptamine receptor 1B (Homo sapiens, UniProt P28222)
5-hydroxytryptamine receptor 1B, sequence (P28222 whole entry): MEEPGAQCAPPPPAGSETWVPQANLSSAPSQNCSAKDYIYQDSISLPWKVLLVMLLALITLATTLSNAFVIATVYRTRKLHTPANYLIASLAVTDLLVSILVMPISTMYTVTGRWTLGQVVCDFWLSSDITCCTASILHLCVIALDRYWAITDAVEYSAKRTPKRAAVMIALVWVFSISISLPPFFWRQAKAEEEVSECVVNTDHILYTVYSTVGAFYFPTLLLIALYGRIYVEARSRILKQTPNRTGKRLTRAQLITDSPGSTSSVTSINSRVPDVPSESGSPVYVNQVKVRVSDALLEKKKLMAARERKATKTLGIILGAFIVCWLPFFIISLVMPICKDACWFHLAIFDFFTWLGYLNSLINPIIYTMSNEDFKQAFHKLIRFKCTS
Description: as §1

[4] = biological target: 5-hydroxytryptamine receptor 1E (Homo sapiens, UniProt P28566)
5-hydroxytryptamine receptor 1E, sequence (P28566 whole entry): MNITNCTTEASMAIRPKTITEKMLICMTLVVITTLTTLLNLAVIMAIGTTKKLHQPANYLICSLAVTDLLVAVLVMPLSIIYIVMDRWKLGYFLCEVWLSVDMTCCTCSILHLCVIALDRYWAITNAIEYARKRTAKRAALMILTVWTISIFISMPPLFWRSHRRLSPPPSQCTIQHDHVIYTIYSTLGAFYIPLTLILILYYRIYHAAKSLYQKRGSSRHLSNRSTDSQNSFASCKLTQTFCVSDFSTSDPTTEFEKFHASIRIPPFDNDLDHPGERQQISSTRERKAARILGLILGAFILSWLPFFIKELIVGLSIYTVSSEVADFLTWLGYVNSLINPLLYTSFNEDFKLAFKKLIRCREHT
Description: as §1

[5] = biological target: T2, Alpha-1A adrenergic receptor (Homo sapiens, UniProt P35348)
T2 sequence (P35348 whole entry): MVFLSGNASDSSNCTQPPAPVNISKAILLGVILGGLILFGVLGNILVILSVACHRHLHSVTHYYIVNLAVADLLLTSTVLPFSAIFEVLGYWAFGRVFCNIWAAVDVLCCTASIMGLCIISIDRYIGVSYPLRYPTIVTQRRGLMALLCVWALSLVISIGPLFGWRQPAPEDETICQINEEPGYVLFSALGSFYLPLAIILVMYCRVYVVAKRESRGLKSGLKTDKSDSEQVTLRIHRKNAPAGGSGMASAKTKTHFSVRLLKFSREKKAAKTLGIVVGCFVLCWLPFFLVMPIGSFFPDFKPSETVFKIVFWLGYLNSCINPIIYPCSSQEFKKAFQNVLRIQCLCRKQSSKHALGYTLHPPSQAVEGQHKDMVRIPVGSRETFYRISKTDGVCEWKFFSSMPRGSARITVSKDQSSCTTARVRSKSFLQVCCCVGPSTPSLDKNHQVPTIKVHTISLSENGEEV
Description: as §1

[6] = biological target: 5-hydroxytryptamine receptor 1D (Homo sapiens, UniProt P28221)
5-hydroxytryptamine receptor 1D, sequence (P28221 whole entry): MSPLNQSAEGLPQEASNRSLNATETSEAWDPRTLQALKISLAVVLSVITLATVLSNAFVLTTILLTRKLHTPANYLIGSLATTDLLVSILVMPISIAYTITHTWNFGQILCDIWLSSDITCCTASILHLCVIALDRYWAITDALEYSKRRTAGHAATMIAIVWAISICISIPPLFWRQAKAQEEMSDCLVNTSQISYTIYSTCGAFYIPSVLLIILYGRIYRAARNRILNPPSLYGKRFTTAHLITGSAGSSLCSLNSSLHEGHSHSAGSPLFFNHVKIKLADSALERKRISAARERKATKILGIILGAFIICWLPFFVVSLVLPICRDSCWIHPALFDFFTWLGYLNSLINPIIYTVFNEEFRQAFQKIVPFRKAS
Description: as §1

[7] = biological target: Sodium-dependent serotonin transporter (Homo sapiens, UniProt P31645)
Sodium-dependent serotonin transporter, sequence (P31645 whole entry): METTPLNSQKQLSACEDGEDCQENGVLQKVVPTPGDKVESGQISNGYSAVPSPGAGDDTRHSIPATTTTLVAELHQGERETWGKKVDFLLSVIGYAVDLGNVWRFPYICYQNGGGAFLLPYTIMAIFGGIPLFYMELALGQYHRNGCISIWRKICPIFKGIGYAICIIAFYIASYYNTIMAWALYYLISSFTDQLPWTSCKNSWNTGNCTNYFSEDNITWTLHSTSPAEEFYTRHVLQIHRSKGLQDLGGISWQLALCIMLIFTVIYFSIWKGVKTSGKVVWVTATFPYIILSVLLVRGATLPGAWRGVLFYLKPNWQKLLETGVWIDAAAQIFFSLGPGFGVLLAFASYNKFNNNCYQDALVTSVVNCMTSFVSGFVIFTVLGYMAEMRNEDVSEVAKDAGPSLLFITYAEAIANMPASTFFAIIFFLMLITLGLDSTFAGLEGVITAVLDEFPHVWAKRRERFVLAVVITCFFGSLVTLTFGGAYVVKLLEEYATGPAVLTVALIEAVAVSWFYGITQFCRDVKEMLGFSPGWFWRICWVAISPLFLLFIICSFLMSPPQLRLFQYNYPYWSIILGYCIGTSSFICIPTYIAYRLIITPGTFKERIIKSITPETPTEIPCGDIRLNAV
Description: as §1

[8] = biological target: Histamine H2 receptor (Homo sapiens, UniProt P25021)
Histamine H2 receptor, sequence (P25021 whole entry): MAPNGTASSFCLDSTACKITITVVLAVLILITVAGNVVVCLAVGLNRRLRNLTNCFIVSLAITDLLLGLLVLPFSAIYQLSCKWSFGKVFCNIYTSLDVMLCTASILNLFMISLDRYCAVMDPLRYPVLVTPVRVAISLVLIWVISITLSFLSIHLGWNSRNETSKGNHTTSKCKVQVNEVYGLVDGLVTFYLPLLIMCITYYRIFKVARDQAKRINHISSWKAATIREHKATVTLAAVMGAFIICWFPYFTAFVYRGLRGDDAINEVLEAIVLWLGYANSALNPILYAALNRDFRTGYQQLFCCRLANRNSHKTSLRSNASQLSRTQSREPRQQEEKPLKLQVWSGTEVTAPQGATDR
Description: as §1

[9] = biological target: T3, Gamma-aminobutyric acid receptor subunit alpha-1 (Homo sapiens, UniProt P14867)
T3 sequence (P14867 whole entry): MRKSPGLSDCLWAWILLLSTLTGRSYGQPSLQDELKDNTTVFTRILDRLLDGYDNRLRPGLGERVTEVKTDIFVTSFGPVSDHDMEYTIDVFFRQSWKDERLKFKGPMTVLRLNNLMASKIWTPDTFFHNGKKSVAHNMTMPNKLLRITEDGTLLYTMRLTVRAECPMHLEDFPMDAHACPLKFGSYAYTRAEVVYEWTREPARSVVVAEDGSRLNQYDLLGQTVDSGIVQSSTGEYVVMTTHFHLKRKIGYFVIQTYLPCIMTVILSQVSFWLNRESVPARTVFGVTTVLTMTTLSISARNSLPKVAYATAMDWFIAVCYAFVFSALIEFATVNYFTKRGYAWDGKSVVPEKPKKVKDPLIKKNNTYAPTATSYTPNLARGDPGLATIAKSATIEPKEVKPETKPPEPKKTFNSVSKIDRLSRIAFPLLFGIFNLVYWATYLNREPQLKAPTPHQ
Description: as §1

[10] = biological target: Sodium-dependent noradrenaline transporter (Homo sapiens, UniProt P23975)
Sodium-dependent noradrenaline transporter, sequence (P23975 whole entry): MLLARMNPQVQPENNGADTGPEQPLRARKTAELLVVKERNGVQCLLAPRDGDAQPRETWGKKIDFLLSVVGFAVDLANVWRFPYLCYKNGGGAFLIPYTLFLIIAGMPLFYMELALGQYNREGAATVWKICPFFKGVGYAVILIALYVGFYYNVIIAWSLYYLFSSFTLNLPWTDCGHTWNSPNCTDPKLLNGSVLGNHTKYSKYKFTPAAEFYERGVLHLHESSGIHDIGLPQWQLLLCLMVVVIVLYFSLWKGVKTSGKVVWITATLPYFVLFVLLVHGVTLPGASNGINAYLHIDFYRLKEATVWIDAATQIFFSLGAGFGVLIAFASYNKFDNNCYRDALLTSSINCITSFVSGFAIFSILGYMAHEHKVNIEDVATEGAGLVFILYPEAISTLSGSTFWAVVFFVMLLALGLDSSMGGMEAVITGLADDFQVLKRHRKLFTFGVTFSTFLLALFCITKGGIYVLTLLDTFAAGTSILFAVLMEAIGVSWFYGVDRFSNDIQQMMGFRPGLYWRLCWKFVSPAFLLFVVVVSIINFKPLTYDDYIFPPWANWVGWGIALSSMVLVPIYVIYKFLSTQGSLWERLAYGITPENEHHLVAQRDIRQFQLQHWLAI
Description: as §1

[11] = biological target: T4, Alpha-2A adrenergic receptor (Homo sapiens, UniProt P08913)
T4 sequence (P08913 whole entry): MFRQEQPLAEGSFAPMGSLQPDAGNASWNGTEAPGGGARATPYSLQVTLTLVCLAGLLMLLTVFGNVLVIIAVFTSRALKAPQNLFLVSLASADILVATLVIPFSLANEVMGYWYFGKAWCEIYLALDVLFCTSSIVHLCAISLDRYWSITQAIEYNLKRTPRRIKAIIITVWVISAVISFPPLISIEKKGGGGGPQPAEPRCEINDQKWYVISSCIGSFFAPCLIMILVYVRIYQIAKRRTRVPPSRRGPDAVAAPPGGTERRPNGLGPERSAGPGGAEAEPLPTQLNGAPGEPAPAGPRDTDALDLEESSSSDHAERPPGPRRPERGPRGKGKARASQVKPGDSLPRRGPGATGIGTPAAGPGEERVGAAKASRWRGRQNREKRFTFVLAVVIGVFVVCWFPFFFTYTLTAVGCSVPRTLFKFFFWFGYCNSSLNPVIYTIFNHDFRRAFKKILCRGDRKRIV
Description: as §1

[12] = biological target: T5, 5-hydroxytryptamine receptor 3A (Homo sapiens, UniProt P46098)
T5 sequence (P46098 whole entry): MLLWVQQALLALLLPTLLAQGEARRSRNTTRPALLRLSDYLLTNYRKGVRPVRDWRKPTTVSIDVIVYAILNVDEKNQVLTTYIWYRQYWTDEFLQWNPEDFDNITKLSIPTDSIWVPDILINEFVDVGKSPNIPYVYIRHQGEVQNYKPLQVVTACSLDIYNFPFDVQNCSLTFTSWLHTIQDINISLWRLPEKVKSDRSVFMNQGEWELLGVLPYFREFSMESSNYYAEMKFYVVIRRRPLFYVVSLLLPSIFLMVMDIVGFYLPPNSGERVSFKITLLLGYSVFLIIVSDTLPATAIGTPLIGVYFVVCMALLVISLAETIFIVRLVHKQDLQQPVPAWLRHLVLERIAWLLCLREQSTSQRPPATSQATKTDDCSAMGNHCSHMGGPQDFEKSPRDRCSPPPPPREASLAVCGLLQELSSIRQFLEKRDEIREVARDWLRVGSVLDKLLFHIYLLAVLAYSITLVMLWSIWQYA
Description: as §1

[13] = biological target: Kappa-type opioid receptor (Homo sapiens, UniProt P41145)
Kappa-type opioid receptor, sequence (P41145 whole entry): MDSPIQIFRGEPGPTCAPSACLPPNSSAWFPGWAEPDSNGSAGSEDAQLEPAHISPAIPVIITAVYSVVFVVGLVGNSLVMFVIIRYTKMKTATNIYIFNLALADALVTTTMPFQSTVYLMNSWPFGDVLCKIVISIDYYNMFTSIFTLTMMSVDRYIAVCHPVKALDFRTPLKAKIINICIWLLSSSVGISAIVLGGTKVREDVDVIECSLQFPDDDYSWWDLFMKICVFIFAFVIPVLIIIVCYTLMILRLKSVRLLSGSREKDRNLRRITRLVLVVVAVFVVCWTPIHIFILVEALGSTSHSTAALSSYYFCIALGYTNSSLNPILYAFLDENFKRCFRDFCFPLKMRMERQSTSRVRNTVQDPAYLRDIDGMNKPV
Description: as §1

[14] = biological target: Delta-type opioid receptor (Homo sapiens, UniProt P41143)
Delta-type opioid receptor, sequence (P41143 whole entry): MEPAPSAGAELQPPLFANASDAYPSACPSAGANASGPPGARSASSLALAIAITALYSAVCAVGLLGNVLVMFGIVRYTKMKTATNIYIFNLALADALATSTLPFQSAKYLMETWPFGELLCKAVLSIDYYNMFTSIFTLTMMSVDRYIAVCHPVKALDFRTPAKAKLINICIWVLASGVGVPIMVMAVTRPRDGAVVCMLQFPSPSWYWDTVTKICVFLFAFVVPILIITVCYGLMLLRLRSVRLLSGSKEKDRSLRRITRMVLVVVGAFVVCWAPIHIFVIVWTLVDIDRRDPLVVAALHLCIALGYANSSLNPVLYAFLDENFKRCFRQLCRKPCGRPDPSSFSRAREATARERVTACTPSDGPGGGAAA
Description: as §1

[15] = biological target: Glutamate receptor ionotropic, NMDA 2A (Homo sapiens, UniProt Q12879)
Description: as §1

5-hydroxytryptamine receptor 6, sequence (P50406 whole entry): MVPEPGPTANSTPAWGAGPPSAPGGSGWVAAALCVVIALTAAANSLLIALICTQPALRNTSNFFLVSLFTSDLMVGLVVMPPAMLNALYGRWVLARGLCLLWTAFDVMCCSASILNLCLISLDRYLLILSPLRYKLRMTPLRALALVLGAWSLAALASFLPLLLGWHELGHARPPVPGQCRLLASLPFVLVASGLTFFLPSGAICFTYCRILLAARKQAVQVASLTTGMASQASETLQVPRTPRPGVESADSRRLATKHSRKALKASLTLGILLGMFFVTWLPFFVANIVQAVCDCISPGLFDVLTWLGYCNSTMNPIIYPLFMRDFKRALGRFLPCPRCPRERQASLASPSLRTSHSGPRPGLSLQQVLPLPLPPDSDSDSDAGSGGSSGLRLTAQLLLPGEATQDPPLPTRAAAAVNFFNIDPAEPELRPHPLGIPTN

Row | Compound | Ki [1] [µM] | Ki [2] [µM] | Ki [3] [µM] | Ki [4] [µM] | Ki [5] [µM] | Ki [6] [µM] | Ki [7] [µM] | Ki [8] [µM] | Ki [9] [µM] | Ki [10] [µM] | Ki [11] [µM] | Ki [12] [µM] | Ki [13] [µM] | Ki [14] [µM] | Ki [15] [µM]
1 | COC(=O)[C@@H]1C[C@H](OC(C)=O)C(=O)[C@H]2[C@@]1(C)CC[C@H]1C(=O)O[C@H](c3ccoc3)C[C@]21C [2S,4aR,6a(R,7R,9S,10aS,10bR)-9-(acetyloxy)-2-(furan-3-yl)dodecahydro-6a,10b-dimethyl-4,10-dioxo-2H-naphtho[2,1-c]pyran-7-carboxylic acid methyl ester] | > 10 | > 10 | > 10 | > 10 | > 10 | > 10 | > 10 | – | – | – | – | – | – | – | –
2 | CN(C)CCc1c[nH]c2ccccc12 [2-(1H-indol-3-yl)-N,N-dimethylethanamine] | 0.487 | > 10 | > 10 | 0.456 | 1.75 | 0.093 | 3.74 | > 10 | > 10 | > 10 | 1.56 | > 10 | > 10 | – | –
3 | C[C@@H]1C[C@H](C)N1C(=O)C1C=C2c3cccc4[nH]cc(c34)C[C@H]2N(C)C1 (stereo partly drawn) [cis-2a] | 0.0129 | – | 0.0037 | 0.195 | 0.529 | – | > 10 | – | > 10 | > 10 | – | > 10 | > 10 | > 10 | > 10
4 | NCCc1c2c(c(Br)c3c1OCC3)OCC2 [2-(8-Bromo-2,3,6,7-tetrahydro-benzo[1,2-b;4,5-b']difuran-4-yl)-ethylamine] | 0.15 | > 10 | 0.185 | 0.11 | > 10 | 0.0014 | > 10 | > 10 | > 10 | > 10 | 0.145 | > 10 | > 10 | > 10 | –
5 | COc1ccc2[nH]cc(CCN(C)C)c2c1 [3-(2-DIMETHYLAMINOETHYL)-5-METHOXYINDOLE] | – | 3.12 | – | – | > 10 | – | 2.03 | > 10 | > 10 | 2.86 | 1.89 | – | > 10 | – | –
6 | CNC(C)Cc1ccc2c(c1)OCO2 (stereo not drawn) [mdma] | > 10 | > 10 | > 10 | > 10 | > 10 | > 10 | > 10 | > 10 | > 10 | > 10 | 2.53 | > 10 | > 10 | – | > 10
7 | CN(C)CCc1c[nH]c2cccc(O)c12 [4-hydroxy-N,N-dimethyltryptamine] | – | > 10 | – | – | > 10 | – | 0.852 | > 10 | > 10 | > 10 | – | > 10 | > 10 | > 10 | –
8 | COc1cc(OC)c(OC)cc1CC(C)N (stereo not drawn) [(+/-)1-Methyl-2-(2,4,5-trimethoxy-phenyl)-ethylamine] | > 10 | > 10 | > 10 | > 10 | > 10 | > 10 | > 10 | > 10 | – | > 10 | > 10 | > 10 | – | – | –
9 | CCSc1cc(OC)c(CC(C)N)cc1OC (stereo not drawn) [2-(4-Ethylsulfanyl-2,5-dimethoxy-phenyl)-1-methyl-ethylamine] | – | > 10 | 2.04 | – | > 10 | 1.53 | 1.32 | > 10 | > 10 | > 10 | 5.8 | > 10 | > 10 | > 10 | > 10
10 | COc1ccc2[nH]c(C)c(CCN(C)C)c2c1 [[2-(5-Methoxy-2-methyl-1H-indol-3-yl)-ethyl]-dimethyl-amine (C2H2O)] | – | > 10 | > 10 | – | – | – | – | – | – | – | – | – | > 10 | > 10 | > 10
11 | CCN(CC)C(=O)[C@@H]1C=C2c3cccc4[nH]cc(c34)C[C@H]2N(C)C1 [[N-methyl-3H]LSD] | – | 0.158 | 0.0039 | – | 1.13 | 0.0078 | > 10 | – | > 10 | > 10 | – | > 10 | > 10 | > 10 | > 10
12 | CC(N)Cc1ccc2c(c1)OCO2 (stereo not drawn) | > 10 | > 10 | > 10 | > 10 | > 10 | > 10 | > 10 | > 10 | > 10 | > 10 | 1.66 | > 10 | > 10 | – | –
13 | CC[C@H]1C[C@@H]2C[C@H]3c4[nH]c5ccc(OC)cc5c4CCN(C2)[C@@H]13 | – | > 10 | > 10 | – | – | > 10 | – | – | > 10 | – | – | > 10 | – | > 10 | 2
14 | CCc1[nH]c2ccc(OC)cc2c1CCN(C)C [2-ethyl-5-methoxy-N,N-dimethyltryptamine] | – | > 10 | > 10 | – | – | – | – | – | – | – | – | – | > 10 | > 10 | > 10
15 | C[C@@H]1C[C@@H](C)N1C(=O)C1C=C2c3cccc4[nH]cc(c34)C[C@H]2N(C)C1 (stereo partly drawn) [rr-2b] | 0.0605 | – | 0.002 | 0.138 | 5.19 | 0.018 | > 10 | – | > 10 | > 10 | – | > 10 | > 10 | > 10 | > 10
